These results are taken from patent US10618904B2 (priority 2016, dated 2020).

Each structure is given as a SMILES string. Converted amounts (≈) assume the structure as drawn. “And” between values parts separate entries of the source, which are not always exact repeats. Identical values can stand only once. Like-named read-outs stand apart in the source and are kept apart here.

A short description of series [1]: Solubility in water of screened salts (Table 2). An excerpt: (§1) In order to achieve the above water solubility goal, the inventors have conducted studies from various aspects, e.g., crystal forms of existing salts, preparation excipients, formation of new salt types, etc., hoping to find a feasible means that can improve water solubility while ensuring better druggability.

The nature of series [2]: Hygroscopicity of screened salts (Table 2). Format: physicochemical.
Text: as §1

A short description of series [3]: Activity of degradation impurity relative to compound of formula (I). To be noted: fraction of parent activity. As to the method: [drawing 4] the impurity having an activity which is 1/300 of that of the compound of formula (I). […] Whether the stability is good or not is also a key factor in selecting the crystal form of the compound. Accordingly, it is preferred in the present invention that the hydrobromide of the compound of the formula (I) is present in the form of α crystal form. […] In the differential scanning calorimetry of the α crystal form, there is a melting endothermic peak at 170° C.±2° C. Therefore, in the present invention, the structure of the α crystal form is defined by the above-mentioned powder diffraction characteristic peaks and DSC melting peak, and on the basis of this definition, the α crystal form can be clearly distinguished from other three crystal forms.

For series [4] the following is noted: prior art information; cited from earlier work.
For series [5] the following is noted: cited from earlier work.
The conditions of series [6]: statement of CN103221414B / CN201280003321.6, cited from earlier work.
Where [7] appears, read: 40 degrees, RH75% closed, 4 weeks.
Where [8] appears, read: 40 degrees, RH75% closed and 60 degrees open, 34 days.

Consider `COC(=O)CC[C@@H]1N=C(c2ccccn2)c2cc(Br)ccc2-n2c(C)cnc21` [α crystal form], for which, in series [1], the “Solubility in water” value is recorded as above 100 mg/mL. For the same compound, the “Hygroscopicity (%)” value in series [2] (listed as Hydrobromide crystal form α) turned out to be 2.5%.

Consider `Cc1cnc2n1-c1ccc(Br)cc1C(c1ccccn1)=N[C@H]2CCC(=O)O`, for which the “activity relative to that of the compound of formula (I)” value in series [3] was 1/300.

As for `COC(=O)CC[C@@H]1N=C(c2ccccn2)c2cc(Br)ccc2-n2c(C)cnc21` [Remimazolam esylate], in series [4], the Solubility in water is 7.8 mg/mL (≈ 17.8 mM). Further, in series [5] (setting [7]), the degradation was 0.2%.

As to `COC(=O)CC[C@@H]1N=C(c2ccccn2)c2cc(Br)ccc2-n2c(C)cnc21.O=S(=O)(O)c1ccccc1` [Remimazolam besylate], the Solubility in water in series [4] was 8.3 mg/mL. The degradation in series [5] (setting [7]) is on record as 0.5%.

With `COC(=O)CC[C@@H]1N=C(c2ccccn2)c2cc(Br)ccc2-n2c(C)cnc21`, in series [1] (water), the solubility (as a rule, the dissolved amount per volume that the medium holds) was above 100 mg/mL.

For `COC(=O)CC[C@@H]1N=C(c2ccccn2)c2cc(Br)ccc2-n2c(C)cnc21` [crystal form 2], the “Solubility in water” value in series [1] is reported as above 100 mg/mL.

With `COC(=O)CC[C@@H]1N=C(c2ccccn2)c2cc(Br)ccc2-n2c(C)cnc21` [Remimazolam, methyl 3-[(4s)-8-bromo-1-methyl-6-(2-pyridyl)-4H-imidazol[1,2-a][1,4]benzodiazepine-4-yl] propionate], the Solubility in water entry in series [4] is on record as “Almost insoluble in water”. Moreover, the “Solubility in water (mg/mL)” value in series [1] was “almost”. The “Hygroscopicity (%)” value in series [2] (listed as Free base) was 1.7%. In series [5] (setting [8]), the appearance change result was “yellowing at 40 degrees, RH75% closed and 60 degrees”; the degradation was 1.5-8%. Also, in series [5] (40° C./75% relative humidity (open), reported in CN101501019), the stability of sample result is “deliquescent, discolored, and significantly reduced in content”.

Consider `COC(=O)CC[C@@H]1N=C(c2ccccn2)c2cc(Br)ccc2-n2c(C)cnc21` [crystal form 3], for which the “Solubility in water” value in series [1] is above 100 mg/mL. Also, the “Hygroscopicity (%)” value in series [2] (listed as Hydrobromide crystal form 3) came to 5%.

Take `COC(=O)CC[C@@H]1N=C(c2ccccn2)c2cc(Br)ccc2-n2c(C)cnc21.O=S(=O)(O)O` [(bi)sulfate form 2]: the “Solubility in water” value in series [1] is above 100 mg/mL. The “Hygroscopicity (%)” value in series [2] came out at 24.9%.

As for `COC(=O)CC[C@@H]1N=C(c2ccccn2)c2cc(Br)ccc2-n2c(C)cnc21.Cc1ccc(S(=O)(=O)O)cc1` [Remimazolam tosylate], in series [4], the Solubility in water is ~10 mg/mL and ~11 mg/mL. Besides, the “toxicity compared with besylate / benzene sulfonic acid” value in series [6] is given as “less toxic than benzene sulfonic acid”; in series [6] (listed as tosylate of the compound of the formula (I)) it was “less toxic than besylate”.

Consider `COC(=O)CC[C@@H]1N=C(c2ccccn2)c2cc(Br)ccc2-n2c(C)cnc21.Cl` [Hydrochloride], for which the “Solubility in water” value in series [1] is recorded as above 100 mg/mL. Moreover, the “Hygroscopicity (%)” value in series [2] is given as 2.8%.

In the case of `COC(=O)CC[C@@H]1N=C(c2ccccn2)c2cc(Br)ccc2-n2c(C)cnc21.O=S(=O)(O)O` [(bi)sulfate form 1], in series [2], the “Hygroscopicity (%)” value was 0.1%.

For the compound `O=S(=O)(O)c1cccc2c(S(=O)(=O)O)cccc12` [1,5-naphthalene disulfonate], the “Solubility in water” value in series [1] is listed as 1 mg/mL. Further, in series [2], the “Hygroscopicity (%)” value came to 15.9%.

In the case of `COC(=O)CC[C@@H]1N=C(c2ccccn2)c2cc(Br)ccc2-n2c(C)cnc21` [crystal form 1], in series [1], the “Solubility in water” value was above 100 mg/mL. For the same compound, the “Hygroscopicity (%)” value in series [2] (listed as Hydrobromide crystal form 1) was 4.6%.
